For 15 compounds, IC50 and Time results are on record in ChEMBL document CHEMBL3044852, “Synthesis of N-hydroxycinnamoyl amino acid ester analogues and their free radical scavenging and antioxidative activities” (Med Chem Res, 2012).

Each structure is given as a SMILES string. Where only a bound is given, the exact number is not on record here.

The nature of test [1]: Antioxidant activity assessed as DPPH scavenging activity after 30 min by UV-vis spectroscopy. The class given is functional.
Test [2] in a line: Antioxidant activity against AAPH-induced hemolysis in Homo sapiens (human) RBC assessed as inhibition time at 10 uM by spectrophotometry. The format is functional, Erythrocyte.

As a reminder, the IC50 is the midpoint of a concentration-inhibition curve. In the case of `CCOC(=O)CNC(=O)/C=C/c1ccc(O)c(O)c1`, in test [1], the half-maximal inhibitory concentration (IC50) is 12.8 µM. For the same compound, the Time in test [2] turned out to be 180 min.

Take `CCOC(=O)CNC(=O)/C=C/c1ccc(O)c(OC)c1`: the IC50 in test [1] turned out to be 64.6 µM. Also, in test [2], the Time is 193 min.

`CCOC(=O)CNC(=O)/C=C/c1ccc(O)cc1`: the IC50 in test [1] is greater than 200 µM. In test [2], the Time was determined as 138 min.

Take `CCOC(=O)[C@H](Cc1ccccc1)NC(=O)/C=C/c1ccc(O)c(O)c1`: the concentration for half-maximal inhibition (IC50) in test [1] stood at 1.45 µM.

As to `CCOC(=O)[C@H](Cc1ccccc1)NC(=O)/C=C/c1ccc(O)c(OC)c1`, the 50% inhibitory concentration (IC50) in test [1] amounted to 52.4 µM. The Time in test [2] came out at 198 min.

For `CCOC(=O)[C@H](Cc1ccccc1)NC(=O)/C=C\c1ccc(O)cc1`, the IC50 in test [1] was greater than 200 µM.

`COC(=O)[C@H](Cc1ccc(O)cc1)NC(=O)/C=C/c1ccc(O)cc1`: the half-maximal inhibitory concentration (IC50) in test [1] was greater than 200 µM.

As to `CCOC(=O)[C@@H](NC(=O)/C=C/c1ccc(O)c(OC)c1)C(C)C`, the IC50 in test [1] was 87.2 µM.

With `O=C1O[C@H]([C@@H](O)CO)C(O)=C1O` [ASCORBIC ACID], in test [1], the IC50 worked out at 29.6 µM.

Take `O=C(O)/C=C/c1ccc(O)c(O)c1` [CAFFEIC ACID]: the IC50 in test [1] was found to be 18.2 µM.

With `O=C(O)/C=C/c1ccc(O)cc1` [COUMARIC ACID], in test [1], the IC50 is greater than 200 µM.

As for `CCOC(=O)/C=C/c1ccc(O)c(O)c1` [ETHYL CAFFEATE], the IC50 in test [1] is 49 µM.

As for `CCOC(=O)/C=C/c1ccc(O)c(OC)c1` [ETHYL FERULATE], the IC50 in test [1] is 150 µM. Also, the Time in test [2] was 150 min.

For `CCOC(=O)/C=C/c1ccc(O)cc1` [ETHYL P-COUMARATE], the IC50 in test [1] was greater than 200 µM.

Consider `COc1cc(/C=C/C(=O)O)ccc1O` [FERULATE], for which the IC50 in test [1] came to 50.1 µM. Besides, the Time in test [2] is given as 148 min.
